Assay results from ChEMBL document CHEMBL4359888, “Discovery of aryl-substituted indole and indoline derivatives as RORγt agonists” (Eur J Med Chem, 2019).
In brackets after ≈: the same amount, converted by molar mass.

Legend:
[1] = molecular target: T1, Nuclear receptor ROR-gamma (Homo sapiens, UniProt P51449); test: Agonist activity at APC-labeled biotinylated RORgammaT LBD (unknown origin) assessed as induction of biotinylated SRC-1 peptide recruitment incubated for 1 hr by dual FRET assay
T1 sequence (P51449 whole entry): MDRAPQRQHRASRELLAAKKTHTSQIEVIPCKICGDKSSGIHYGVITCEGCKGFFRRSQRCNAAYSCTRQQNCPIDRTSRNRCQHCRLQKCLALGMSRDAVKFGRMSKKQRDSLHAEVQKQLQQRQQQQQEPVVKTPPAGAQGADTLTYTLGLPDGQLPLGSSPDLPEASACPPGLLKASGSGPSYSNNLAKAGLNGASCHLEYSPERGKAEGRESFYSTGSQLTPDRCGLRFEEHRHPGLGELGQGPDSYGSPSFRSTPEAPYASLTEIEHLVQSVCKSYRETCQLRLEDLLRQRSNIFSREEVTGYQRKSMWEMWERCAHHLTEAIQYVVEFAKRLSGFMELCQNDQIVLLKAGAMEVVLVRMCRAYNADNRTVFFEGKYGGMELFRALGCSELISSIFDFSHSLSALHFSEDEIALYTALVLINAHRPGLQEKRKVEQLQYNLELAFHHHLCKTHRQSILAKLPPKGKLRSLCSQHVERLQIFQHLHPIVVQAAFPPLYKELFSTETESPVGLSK

[2] = molecular target: T1, Nuclear receptor ROR-gamma; test: Transactivation of human GAL4-fused RORgammaT LBD expressed in human HEK293T cells incubated for 16 to 20 hrs by steady-glo luciferase assay; format: cell-based
[3] = Metabolic stability in mouse liver microsomes assessed as half life of compound at 1 uM and measured for 60 mins in presence of NADPH by HPLC-MS/MS analysis; format: ADME, Microsome
physchem = conditions: phosphate buffer, pH 7.46
in vitro = conditions: mouse, liver microsomes
[4] = Cmax in CD-1 mouse at 1 mg/kg, iv measured for 24 hrs by LC-MS/MS analysis; format: ADME, organism-based; set-up: dose 1 mg/kg, route intravenous; conditions: in vivo
[5] = Cmax in CD-1 mouse at 5 mg/kg, po measured for 24 hrs by LC-MS/MS analysis; format: ADME, organism-based; set-up: dose 5 mg/kg, route oral; conditions: in vivo
[6] = Volume of distribution at steady state in CD-1 mouse at 1 mg/kg, iv measured for 24 hrs by LC-MS/MS analysis; format: ADME, organism-based; conditions: in vivo, read-out: Vdss
[7] = Clearance in CD-1 mouse at 1 mg/kg, iv measured for 24 hrs by LC-MS/MS analysis; format: ADME, organism-based; conditions: in vivo
[8] = AUC (0 to last) in CD-1 mouse at 1 mg/kg, iv measured for 24 hrs by LC-MS/MS analysis; format: ADME, organism-based; set-up: dose 1 mg/kg, route intravenous, time 0 - last; conditions: in vivo
[9] = Half life in CD-1 mouse at 5 mg/kg, po measured for 24 hrs by LC-MS/MS analysis; format: ADME, organism-based; conditions: in vivo
[10] = Half life in CD-1 mouse at 1 mg/kg, iv measured for 24 hrs by LC-MS/MS analysis; format: ADME, organism-based; conditions: in vivo
[11] = AUC (0 to last) in CD-1 mouse at 5 mg/kg, po measured for 24 hrs by LC-MS/MS analysis; format: ADME, organism-based; set-up: dose 5 mg/kg, route oral, time 0 - last; conditions: in vivo
[12] = Oral bioavailability in CD-1 mouse at 5 mg/kg measured for 24 hrs by LC-MS/MS analysis; format: ADME, organism-based; conditions: in vivo

| Structure (SMILES) | EC50 [1] [nM] | half-life at 1 µM [3] [min] | other results |
| --- | --- | --- | --- |
| CCOc1cc(F)cc(-c2ccc3c(c2)N(S(=O)(=O)c2cccc(C(F)(F)F)c2)C(CC(=O)O)C3)c1 (stereo not drawn) | 32.9 |  |  |
| O=C(CC1Cc2ccc(-c3cc(F)cc(OC(F)F)c3)cc2N1S(=O)(=O)c1cccc(C(F)(F)F)c1)N1CC2(COC2)C1 (stereo not drawn) | 47.9 | 0.7 | EC50 [2]: 752 nM |
| O=S(=O)(c1cccc(C(F)(F)F)c1)N1CCc2ccc(-c3cc(F)cc(OC(F)F)c3)cc21 | 50.6 | 11.4 | solubility kinetic at 2 h, 100 µM (physchem): 1.48 µM (≈ 0.721 µg/mL); microsomal CLint at 1 h, 1 µM (in vitro): 121 µL/min/mg |
| CC(=O)N1CCN(c2ccc(OCC3COC(Cn4ccnc4)(c4ccc(Cl)cc4Cl)O3)cc2)CC1 (stereo not drawn) [KETOCONAZOLE] |  |  | solubility kinetic at 2 h, 100 µM (physchem): 31.1 µM (≈ 16.5 µg/mL) |
| O=C1CCN(C(=O)CC2Cc3ccc(-c4cc(F)cc(OC(F)F)c4)cc3N2S(=O)(=O)c2cccc(C(F)(F)F)c2)C1 (stereo not drawn) | 52.3 |  |  |
| COc1cc(F)cc(-c2ccc3c(c2)N(S(=O)(=O)c2cccc(C(F)(F)F)c2)C(CC(=O)O)C3)c1 (stereo not drawn) | 39.3 |  |  |
| O=C(CC1Cc2ccc(-c3cc(F)cc(OC(F)F)c3)cc2N1S(=O)(=O)c1cccc(C(F)(F)F)c1)N1CCOCC1 (stereo not drawn) | 209 |  |  |
| O=C1CCN(C(=O)CC2Cc3ccc(-c4cc(F)cc(OC(F)F)c4)cc3N2S(=O)(=O)c2cccc(C(F)(F)F)c2)CC1 (stereo not drawn) | 80.4 |  |  |
| O=C(O)C[C@H]1Cc2ccc(-c3cc(F)cc(OC(F)F)c3)cc2N1S(=O)(=O)c1cccc(C(F)(F)F)c1 | 286 |  |  |
| O=C(O)CCCC1CN(S(=O)(=O)c2cccc(C(F)(F)F)c2)c2cc(-c3cc(F)cc(OC(F)F)c3)ccc21 (stereo not drawn) | 26.2 | 34.2 |  |
| O=C(O)CC1Cc2ccc(-c3cccc(OC(F)(F)F)c3)cc2N1S(=O)(=O)c1cccc(C(F)(F)F)c1 (stereo not drawn) | 31.1 |  |  |
| O=C(CC1Cc2ccc(-c3cc(F)cc(OC(F)F)c3)cc2N1S(=O)(=O)c1cccc(C(F)(F)F)c1)N1CCS(=O)(=O)CC1 (stereo not drawn) | 43.4 | 2 | EC50 [2]: 322 nM |
| O=C(O)Cc1cn(S(=O)(=O)c2cccc(C(F)(F)F)c2)c2cc(-c3cc(F)cc(OC(F)F)c3)ccc12 | 133 |  |  |
| O=C(CC1Cc2ccc(-c3cc(F)cc(OC(F)F)c3)cc2N1S(=O)(=O)c1cccc(C(F)(F)F)c1)N1CCC(O)CC1 (stereo not drawn) | 106 | 0.7 | EC50 [2]: 6040 nM |
| O=C(O)CCc1cn(S(=O)(=O)c2cccc(C(F)(F)F)c2)c2cc(-c3cc(F)cc(OC(F)F)c3)ccc12 | 43.6 |  |  |
| O=C(O)CCCc1cn(S(=O)(=O)c2cccc(C(F)(F)F)c2)c2cc(-c3cc(F)cc(OC(F)F)c3)ccc12 | 93.8 |  |  |
| O=C(O)CC1Cc2ccc(-c3ccc4c(c3)CCO4)cc2N1S(=O)(=O)c1cccc(C(F)(F)F)c1 (stereo not drawn) | 56.8 |  |  |
| O=C(O)CC1Cc2ccc(-c3ccc4c(c3)OCO4)cc2N1S(=O)(=O)c1cccc(C(F)(F)F)c1 (stereo not drawn) | 87.4 |  |  |
| CC(C)Oc1cc(F)cc(-c2ccc3c(c2)N(S(=O)(=O)c2cccc(C(F)(F)F)c2)C(CC(=O)O)C3)c1 (stereo not drawn) | 124 |  |  |
| O=C(O)C1CCN(C(=O)CC2Cc3ccc(-c4cc(F)cc(OC(F)F)c4)cc3N2S(=O)(=O)c2cccc(C(F)(F)F)c2)CC1 (stereo not drawn) | 57.1 | 30.1 | EC50 [2]: 5440 nM |
| O=C(O)CCCC1Cc2ccc(-c3cc(F)cc(OC(F)F)c3)cc2N1S(=O)(=O)c1cccc(C(F)(F)F)c1 (stereo not drawn) | 25.2 | 93.3 | EC50 [2]: 422 nM |
| O=S(=O)(c1cccc(C(F)(F)F)c1)n1ncc2ccc(-c3cc(F)cc(OC(F)F)c3)cc21 | 205 |  |  |

| Structure (SMILES) | EC50 [1] [nM] | half-life at 1 µM [3] [min] | other results |
| --- | --- | --- | --- |
| O=C(O)CCCc1cc2ccc(-c3cc(F)cc(OC(F)F)c3)cc2n1S(=O)(=O)c1cccc(C(F)(F)F)c1 | 45.3 |  |  |
| O=C(O)c1cc2ccc(-c3cc(F)cc(OC(F)F)c3)cc2n1S(=O)(=O)c1cccc(C(F)(F)F)c1 | 74.3 |  |  |
| O=S(=O)(c1cccc(C(F)(F)F)c1)n1cnc2ccc(-c3cc(F)cc(OC(F)F)c3)cc21 | 122 |  |  |
| O=C(O)CC1Cc2ccc(-c3cc(F)cc(Cl)c3)cc2N1S(=O)(=O)c1cccc(C(F)(F)F)c1 (stereo not drawn) | 42 |  |  |
| O=S(=O)(c1cccc(C(F)(F)F)c1)N1CCc2ccc(OCc3c(F)cccc3Cl)cc21 | 30.2 | 2.9 | solubility kinetic at 2 h, 100 µM (physchem): 0.08 µM (≈ 0.0389 µg/mL); microsomal CLint at 1 h, 1 µM (in vitro): 482 µL/min/mg |
| O=C(O)CC1Cc2ccc(-c3cc(F)cc(OC(F)F)c3)cc2N1S(=O)(=O)c1cccc(C(F)(F)F)c1 (racemic) | 20.8 | 113 | EC50 [2]: 247 nM; Cmax [4]: 1640 ng/mL; Cmax [5]: 1400 ng/mL; Vd [6]: 2.09 L/kg; solubility kinetic at 2 h, 100 µM (physchem): 69.4 µM (≈ 37.9 µg/mL); microsomal CLint at 1 h, 1 µM (in vitro): 12.3 µL/min/mg; clearance [7]: 9.55 mL/min/kg; AUC(0-t) at 24 h [8]: 1710 ng·h/mL; half-life [9]: 249 min; half-life [10]: 295 min; AUC(0-t) at 24 h [11]: 9120 ng·h/mL; bioavailability [12]: 107% |
| O=C(O)CCC1Cc2ccc(-c3cc(F)cc(OC(F)F)c3)cc2N1S(=O)(=O)c1cccc(C(F)(F)F)c1 (stereo not drawn) | 31.3 | 60.9 | EC50 [2]: 2320 nM |
| CC(C)(C[C@H]1CN(S(=O)(=O)c2cccc(C(F)(F)F)c2)c2cc(-c3cc(F)cc(OC(F)F)c3)ccc2O1)C(=O)O [CINTIRORGON] |  |  | solubility kinetic at 2 h, 100 µM (physchem): 37.5 µM (≈ 22.6 µg/mL) |
| O=C(O)CCC1CN(S(=O)(=O)c2cccc(C(F)(F)F)c2)c2cc(-c3cc(F)cc(OC(F)F)c3)ccc21 (stereo not drawn) | 14.6 | 24.5 |  |
| O=C(O)CC1CN(S(=O)(=O)c2cccc(C(F)(F)F)c2)c2cc(-c3cc(F)cc(OC(F)F)c3)ccc21 (stereo not drawn) | 21.8 | 45.6 |  |
| O=C(O)CC1Cc2ccc(-c3ccc4c(c3)OC(F)(F)O4)cc2N1S(=O)(=O)c1cccc(C(F)(F)F)c1 (stereo not drawn) | 42.6 |  |  |
| O=C(CC1Cc2ccc(-c3cc(F)cc(OC(F)F)c3)cc2N1S(=O)(=O)c1cccc(C(F)(F)F)c1)N1CC(O)C1 (stereo not drawn) | 244 |  |  |
| O=S(=O)(c1cccc(C(F)(F)F)c1)n1ccc2ccc(-c3cc(F)cc(OC(F)F)c3)cc21 | 99.4 | 39.1 |  |
| O=C(O)Cc1cc2ccc(-c3cc(F)cc(OC(F)F)c3)cc2n1S(=O)(=O)c1cccc(C(F)(F)F)c1 | 125 |  |  |
| O=C(O)CCc1cc2ccc(-c3cc(F)cc(OC(F)F)c3)cc2n1S(=O)(=O)c1cccc(C(F)(F)F)c1 | 25.5 | > 145 | EC50 [2]: 1710 nM |
| O=C(O)CC1Cc2ccc(-c3cc(F)cc(C(F)(F)F)c3)cc2N1S(=O)(=O)c1cccc(C(F)(F)F)c1 (stereo not drawn) | 41.3 |  |  |
| O=C1CN(C(=O)CC2Cc3ccc(-c4cc(F)cc(OC(F)F)c4)cc3N2S(=O)(=O)c2cccc(C(F)(F)F)c2)C1 (stereo not drawn) | 78.8 |  |  |
| O=C(O)CC1Cc2ccc(-c3cc(F)cc(F)c3)cc2N1S(=O)(=O)c1cccc(C(F)(F)F)c1 (stereo not drawn) | 25.7 |  |  |
| O=C(O)C1CN(C(=O)CC2Cc3ccc(-c4cc(F)cc(OC(F)F)c4)cc3N2S(=O)(=O)c2cccc(C(F)(F)F)c2)C1 (stereo not drawn) | 49.3 | 65.9 | EC50 [2]: 4050 nM |
| COC(=O)C1=C(C)NC(C)=C(C(=O)OCCN(C)Cc2ccccc2)C1c1cccc([N+](=O)[O-])c1 (stereo not drawn) [NICARDIPINE] |  |  | solubility kinetic at 2 h, 100 µM (physchem): 5.01 µM (≈ 2.4 µg/mL) |
| O=C(O)C[C@@H]1Cc2ccc(-c3cc(F)cc(OC(F)F)c3)cc2N1S(=O)(=O)c1cccc(C(F)(F)F)c1 | 16.1 |  | EC50 [2]: 201 nM |
